Reference: PubChem BioAssay (NCI)
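Dose response: 5 concentrations. Exposure: 48 h. Format: 96-well plates. Endpoint: linear interpolation; highest concentration if not reached. GI50 = concentration required for 50% inhibition of growth. TGI: concentration producing complete growth inhibition.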

Experiments:
Test in all cases: NCI tumour cell line growth inhibition, 48 h
IGROV1 ovarian = tested on: IGROV1 ovarian
PC-3 prostate = tested on: PC-3 prostate
NCI-H23 lung = tested on: NCI-H23 lung
MDA-MB-435 = tested on: MDA-MB-435
HL-60(TB) leukemia = tested on: HL-60(TB) leukemia
BT-549 breast = tested on: BT-549 breast
HS 578T breast = tested on: HS 578T breast
OVCAR-5 ovarian = tested on: OVCAR-5 ovarian
MCF7 breast = tested on: MCF7 breast
UACC-257 melanoma = tested on: UACC-257 melanoma
SNB-75 CNS = tested on: SNB-75 CNS
HCC-2998 colon = tested on: HCC-2998 colon
MDA-MB-231 breast = tested on: MDA-MB-231 breast
UACC-62 melanoma = tested on: UACC-62 melanoma
NCI-H460 lung = tested on: NCI-H460 lung
SF-268 CNS = tested on: SF-268 CNS
SN12C renal = tested on: SN12C renal
SR leukemia = tested on: SR leukemia
TK-10 renal = tested on: TK-10 renal
HOP-62 NSCLC = tested on: HOP-62 NSCLC
RXF 393 renal = tested on: RXF 393 renal
HT29 colon = tested on: HT29 colon
MOLT-4 leukemia = tested on: MOLT-4 leukemia
SK-MEL-2 melanoma = tested on: SK-MEL-2 melanoma
UO-31 renal = tested on: UO-31 renal
LOX IMVI melanoma = tested on: LOX IMVI melanoma
SF-295 CNS = tested on: SF-295 CNS
NCI-H226 lung = tested on: NCI-H226 lung
DU-145 prostate = tested on: DU-145 prostate
EKVX NSCLC = tested on: EKVX NSCLC

For O=C1/C=C/[C@@H](O)[C@@H]2C[C@@H](O)C[C@H]2/C=C/CCC[C@H](CCc2ccccc2)O1, the TGI (IGROV1 ovarian) was 13200 nM, the GI50 (PC-3 prostate) was 44.4 nM and the TGI (PC-3 prostate) was 24800 nM. It also gave a GI50 (NCI-H23 lung) of 33.4 nM, a TGI (NCI-H23 lung) of 285 nM and a GI50 (MDA-MB-435) of 36.5 nM. It also gave a TGI (MDA-MB-435) of 14000 nM, a GI50 (HL-60(TB) leukemia) of 30.7 nM and a TGI (HL-60(TB) leukemia) of 128 nM. For the same molecule, the GI50 (BT-549 breast) was 48.5 nM, the TGI (BT-549 breast) was 14300 nM and the GI50 (HS 578T breast) was less than 10 nM. The TGI (HS 578T breast) was 21700 nM, the GI50 (OVCAR-5 ovarian) was 57.3 nM and the TGI (OVCAR-5 ovarian) was greater than 100000 nM. For the same molecule, the GI50 (MCF7 breast) was 23.4 nM, the TGI (MCF7 breast) was 55.1 nM and the GI50 (UACC-257 melanoma) was 37.5 nM. It also gave a TGI (UACC-257 melanoma) of 21700 nM, a GI50 (SNB-75 CNS) of less than 12.4 nM and a TGI (SNB-75 CNS) of 33800 nM. It also gave a GI50 (HCC-2998 colon) of 29.6 nM, a TGI (HCC-2998 colon) of 994 nM and a GI50 (MDA-MB-231 breast) of 20.4 nM. It also gave a TGI (MDA-MB-231 breast) of 42.7 nM, a GI50 (UACC-62 melanoma) of 46.7 nM and a TGI (UACC-62 melanoma) of 9000 nM. It also gave a GI50 (NCI-H460 lung) of 38.9 nM, a TGI (NCI-H460 lung) of 15700 nM and a GI50 (SF-268 CNS) of 22.9 nM. For the same molecule, the TGI (SF-268 CNS) was 7380 nM, the GI50 (SN12C renal) was 37.3 nM and the TGI (SN12C renal) was 14100 nM. The GI50 (SR leukemia) was 35 nM, the GI50 (TK-10 renal) was 34.8 nM and the TGI (TK-10 renal) was 206 nM. For the same molecule, the GI50 (HOP-62 NSCLC) was 37.1 nM, the TGI (HOP-62 NSCLC) was 20500 nM and the GI50 (RXF 393 renal) was less than 10 nM. It also gave a TGI (RXF 393 renal) of less than 21.2 nM, a GI50 (HT29 colon) of 31.5 nM and a TGI (HT29 colon) of 470 nM. For the same molecule, the GI50 (MOLT-4 leukemia) was 36 nM, the GI50 (SK-MEL-2 melanoma) was 31.8 nM and the TGI (SK-MEL-2 melanoma) was 100 nM. It also gave a GI50 (UO-31 renal) of 31.7 nM, a TGI (UO-31 renal) of 13400 nM and a GI50 (LOX IMVI melanoma) of 21.1 nM. For the same molecule, the TGI (LOX IMVI melanoma) was 48 nM, the GI50 (SF-295 CNS) was 38 nM and the TGI (SF-295 CNS) was greater than 50000 nM. For the same molecule, the GI50 (NCI-H226 lung) was 17.9 nM, the TGI (NCI-H226 lung) was 74.8 nM and the GI50 (DU-145 prostate) was 49.9 nM. The TGI (DU-145 prostate) was greater than 100000 nM, the GI50 (EKVX NSCLC) was 36.9 nM and the TGI (EKVX NSCLC) was 14600 nM.
